Test results reported in patent US20060149033A1, “IGF antagonist peptides” (GENENTECH, INC., priority 2001, published 2006).
Bridge positions count the residues as written; N and C are the ends. Peptide text beside a SMILES is read from it.

Tests used:
IGFBP-1 = test: Peptide inhibition of phage IGF-1 binding to IGFBP-1; design: species or system human; details: synthetic peptide preincubated 45 minutes with IGF-1 displaying phage; plates coated with IGF binding protein; read-out: BP1 Comp
Procedure: (§1) Peptide Inhibition of Phage IGF-1 Binding to IGF Binding Proteins
(§2) For inhibition of IGFBP-1 and IGFBP3, E. coli cells (XL1-Blue, Stratagene) freshly transformed with the phage vector pIGF-g3 displaying human IGF-1 as described in Dubaquie and Lowman, supra, was grown overnight in 5 ml of 2YT medium (Sambrook et al., Molecular Cloning. A Laboratory Handbook (Cold Spring Harbor Laboratory Press, Cold Spring Harbor, N.Y., 1989)). The IGF-1 displaying phage was titered against IGF bp1 and bp3 for a 500-1000× dilution for preincubation with serial dilutions the synthesized peptides and binding protein standards for 45 minutes. Immunosorbant plates were coated with IGF binding proteins and blocked with 0.5% TWEEN®-20 detergent and PBS and washed as above. The samples were added to the plates for 20 minutes, washed and detected as above. The experimental IC50 values are in Table 5.

IGFBP3 = test: Peptide inhibition of phage IGF-1 binding to IGFBP-3; design: species or system human; details: synthetic peptide preincubated 45 minutes with IGF-1 displaying phage; plates coated with IGF binding protein; read-out: BP3 Comp
Procedure: as §1, §2

[1] = test system: human type 1 IGF-1 receptor; test: Cell-based IGF-1 KIRA assay; details: MCF-7 cells; peptides preincubated 30 min with 2 nm IGF-1; 15-minute stimulation
Procedure: Cell-Based IGF-1 KIRA Assay
A KIRA for measuring the activation of the human type 1 IGF-1 receptor was performed using human MCF-7 cells (as described above). Cells were grown overnight in 96-well plates with medium (50:50 F12/DMEM, Gibco). Supernatants were decanted, and stimulation media (50:50 F12/DMEM with 25 mM HEPES and 2.0% BSA) containing either controls (2 nM IGF-1 preincubated with IGF Bp1 or Bp3) or experimental samples (Peptides preincubated for 30 min. with 2 nm IGF-1) were added. After 15-minute stimulation the cells were lysed, and added to the polyclonal anti-IGF-R (3B7 Santa Cruz Biotech) coated overnight on immunosorbant plates. The detection ELISA was performed as above.

[2] = test system: IGF receptors on MCF-7 cells; test: Displacement of 125I IGF-1 on MCF-7 cells; design: species or system human; details: peptides preincubated with 2 nm 125I IGF-1 for 40 minutes at 37° C; added to cells for 30 minutes; read-out: MCF-7 binding
Procedure: Displacement of IGF-1 on MCF-7 Cells
MCF7 (ATCC-HTB, Bethesda, Md.), a breast carcinoma cell line that expresses IGF receptors as well as insulin receptors (Grupe et al., J. Biol. Chem., 270, 22085-22088 (1995)) was used to detect inhibition of ^125I IGF-1 to receptors on cells by synthesized peptides. Cell were passaged weekly in media containing a 50/50 mix of high-glucose DMEM/Ham's F12, with 10% fetal bovine serum and 10 mM HEPES pH 7.2. Cells were plated and grown overnight maintained at 37° C. and 5% CO2. For IGF-1 iodination, 50 μg of IGF-1 was diluted into 200 μL of PBS and added to a tube coated with 100 μg of IODOGEN® 1,3,4,6-tetrachloro-3α-6β-diphenylglycouril) (Pierce Chemical Co.), incubated with 1 mCi of ^125I-NaI (10 μL) at room temperature for 10-15 minutes. Synthesized peptides and binding protein controls were preincubated with 2 nm ^125I IGF-1 for 40 minutes at 37° C. The samples were added to cells for 30 minutes. The cells were washed with media and lysed with 1N NaOH.

[3] = test system: human insulin receptor (hIR); test: Cell-based insulin KIRA assay (kinase receptor activation); details: Chinese hamster ovary cells transfected with hIR; peptides incubated with 25 nm IGF-1 for 1 hr; 15 min stimulation
Procedure: Cell-Based Insulin KIRA Assay of IGF-1 Binding Peptide Activity
A kinase receptor activation assay (KIRA) (Sadick et al., J. Pharm. Biomed. Anal., 19, 883-891 (1999)) for measuring phosphorylation of human insulin receptor (hIR) was developed using Chinese hamster ovary cells transfected with the hIR. (TRY-1R 5.3) Cells were grown overnight in 96-well plates with medium (PS/20) at 37° C. Supernatants were decanted and stimulation media (PS/20 and 0.5% BSA) containing either peptide samples (peptides incubated with 25 nm IGF-1 for 1 hr), experimental controls (IGF Bp1 incubated with IGF-1 for 1 hr), and 25 nm rhIGF-1 standards were added. After fifteen minute stimulation at 37° C., stimulation solutions were removed and cells were lysed with a buffer containing 50 mM HEPES, 150 mM NaCl, 0.5% Triton-X-100™ octylphenyl ethylene oxide condensate, 1 mM AEBSF, aprotinin and 0.05 mM leupeptin, and 2 mM sodium orthovanadate. Lysates were frozen at −70° C. for ELISA. Immunosorbant plates were coated with 2 μg/ml insulin receptor Ab-2 (clone 83-7) in PBS at pH 7.0 overnight at 4° C. The plate was blocked and washed as above. Cell lysates containing transfected hIR were incubated on the capture ELISA plates for 2 hrs. After removing unbound receptor by washing, biotinylated anti-phosphotyrosine 4G10 (Upstate Biologicals Inc.) was added to detect activated receptor. After 2 hrs, the plates were developed with streptavidin conjugated to HRP and TMB substrate as above.

Structure (SMILES) | IC50 (IGFBP-1) [µM] | IC50 (IGFBP3) [µM] | IC50 [1] [µM] | IC50 [2] [µM] | IC50 [3] [µM]
CSCC[C@H](NC(=O)[C@@H]1CSSC[C@H](NC(=O)[C@H](CC(N)=O)NC(=O)[C@@H](N)CCCNC(=N)N)C(=O)N[C@@H](Cc2ccccc2)C(=O)N[C@@H](CCC(=O)O)C(=O)N[C@@H](CO)C(=O)N[C@@H](C(C)C)C(=O)N[C@@H](C)C(=O)N[C@@H](C)C(=O)N[C@@H](CC(C)C)C(=O)N[C@@H](CCCNC(=N)N)C(=O)N[C@@H](CCCNC(=N)N)C(=O)N1)C(=O)N[C@@H](Cc1ccc(O)cc1)C(=O)NCC(=O)O [Peptide F1-1, RNCFESVAALRRCMYG] (H-RNCFESVAALRRCMYG-OH; disulfide 3-13) | 1.4 | 2.93 | 84.9 | 5.12 | 5.48
CSCC[C@H](NC(=O)[C@@H]1CSSC[C@H](NC(=O)[C@H](CC(=O)O)NC(=O)[C@@H](N)CCSC)C(=O)N[C@@H](CC(C)C)C(=O)N[C@@H](C)C(=O)N[C@@H](CO)C(=O)N[C@@H](C(C)C)C(=O)N[C@@H](CCC(=O)O)C(=O)N[C@@H](C)C(=O)N[C@@H](CC(C)C)C(=O)N[C@@H](CCCCN)C(=O)N[C@@H](Cc2c[nH]c3ccccc23)C(=O)N1)C(=O)N[C@@H](Cc1ccc(O)cc1)C(=O)NCC(=O)O [Peptide F1-2, MDCLASVEALKWCMYG] (H-MDCLASVEALKWCMYG-OH; disulfide 3-13 (inferred); N-terminus and C-terminus assumed) | 15.5 | 9.2 | 20 | 15.3 | 32.6
CSCC[C@H](NC(=O)[C@@H]1CSSC[C@H](NC(=O)[C@H](CCC(=O)O)NC(=O)[C@@H](N)Cc2ccccc2)C(=O)N[C@@H](CC(C)C)C(=O)N[C@@H]([C@@H](C)O)C(=O)N[C@@H](CO)C(=O)N[C@@H](C(C)C)C(=O)N[C@@H](CCC(=O)O)C(=O)N[C@@H](C)C(=O)N[C@@H](CC(C)C)C(=O)N[C@@H](CCCNC(=N)N)C(=O)NCC(=O)N1)C(=O)N[C@@H](Cc1ccc(O)cc1)C(=O)NCC(N)=O [Peptide F1-3, FECLTSVEALRGCMYG] (H-FECLTSVEALRGCMYG-NH2; disulfide 3-13; N-terminus and C-terminus assumed) | 11.7 | 12.8 | 102 | 45.7 | 66.1
